# In patent US20170311605A1, “SYNERGISTIC BACILLUS THURINGIENSIS SUBSP. AIZAWAI AND FLUBENDIAMIDE MIXTURES FOR DIAMONDBACK MOTH, BEET ARMYWORM, SOYBEAN LOOPER, CORN EARWORM, AND SUGARCANE BORER CONTROL” (Valent BioSciences LLC, priority 2016, published 2017):
# Read-outs that look alike come from different tables or passages of the source.
# Assays:
# [1] = test system: diamondback moth larvae; assay: leaf dip test, diamondback moth larvae; type: in vivo; details: Plutella xylostella, foliar, Bta 2.7 ppm, flubendiamide 0.215 ppm, mixture 2.7 ppm + 0.215 ppm, read-out: % Efficacy
# Procedure: (§1) The following examples illustrate the synergy of Bacillus thuringiensis subsp. aizawai and flubendiamide when controlling diamondback moth, beet armyworm, soybean looper, corn earworm, and sugarcane borer. Xentari® was used as the source of Bacillus thuringiensis subsp. aizawai and Belt® was used as the source of flubendiamide. The present invention is not limited to the products or formulation types used herein. In each example below, the studies were conducted as follows.
# For these tests, standardized laboratory leaf dip methods were used to inoculate plant material with treatment(s). Dry, treated leaves were placed into Petri dishes (100×25 mm) containing filter paper wetted with 500 μl of distilled H2O (“dH2O”). […] Synergy ratings were calculated for each test. […]
# (§2) % Cexp=A+B−(AB/100), where % Cexp is the expected efficacy and “in which A and B are the control levels given by the single [insecticides]. […] Adopting a conservative approach, Applicant determined synergy to be present at ratios of ≧1.15. […]
# In order to determine synergy, rates below normal field rate ranges must be used. If normal field rate ranges are used, all of the larvae would die (combining a lethal or near lethal dose of Bacillus thuringiensis subsp. aizawai with a lethal dose of flubendiamide would most likely lead to larvae death) in every treatment and synergy would not be able to be determined. […]
# [2] = test system: beet armyworm larvae; assay: leaf dip test, beet armyworm larvae; type: in vivo; details: Spodoptera exigua, foliar, Bta 2.7 ppm, flubendiamide 0.49 ppm, mixture 2.7 ppm + 0.49 ppm, read-out: % Efficacy
# Procedure: as §1
# (§3) For these tests, standardized laboratory leaf dip methods were used to inoculate plant material with treatment(s). Dry, treated leaves were placed into Petri dishes (100×25 mm) containing filter paper wetted with 500 μl of distilled H2O (“dH2O”). Each dish was then infested with between 5 and 10 larvae, dependent on species. Efficacy ratings were taken at specified intervals. Synergy ratings were calculated for each test.
# as §2
# [3] = test system: cabbage looper larvae; assay: leaf dip test, cabbage looper larvae; type: in vivo; details: Trichoplusia ni, foliar, Bta 2.7 ppm, flubendiamide 0.49 ppm, mixture 2.7 ppm + 0.49 ppm, read-out: % Efficacy
# [4] = test system: sugarcane borer larvae; assay: leaf dip test, sugarcane borer larvae; type: in vivo; details: Diatraea saccharalis, foliar, Bta 27 ppm, flubendiamide 2.15 ppm, mixture 27 ppm + 2.15 ppm, read-out: % Efficacy
# Procedure: as §1, §3, §2
# [5] = test system: southwestern corn borer larvae; assay: leaf dip test, southwestern corn borer larvae; type: in vivo; details: foliar, Bta 2.7 ppm, flubendiamide 0.39 ppm, mixture 2.7 ppm + 0.39 ppm, read-out: % Efficacy
# [6] = test system: soybean looper larvae; assay: leaf dip test, soybean looper larvae; type: in vivo, Chrysodeixis includens; details: foliar, Bta 27 ppm, flubendiamide 3.9 ppm, mixture 27 ppm + 3.9 ppm, read-out: % Efficacy
# Procedure: as §1, §3, §2
# [7] = test system: corn earworm larvae; assay: leaf dip test, corn earworm larvae; type: in vivo; details: Helicoverpa zea, foliar, Bta 27 ppm, flubendiamide 0.975 ppm, mixture 27 ppm + 0.975 ppm, read-out: % Efficacy
# Procedure: as §1, §3, §2
smiles,measurement,setting,value
"Cc1cc(C(F)(C(F)(F)F)C(F)(F)F)ccc1NC(=O)c1cccc(I)c1C(=O)NC(C)(C)CS(C)(=O)=O [Flubendiamide, 3-iodo-N′-(2-mesyl-1,1-dimethylethyl)-N-{4-[1,2,2,2-tetrafluoro-1-(trifluoromethyl)ethyl]-o-tolyl}phthalamide]",Emax at 0.215 ppm,[1]; 24 h after treatment,11%
same,Emax at 0.215 ppm,[1]; 48 h after treatment,25%
same,Emax at 0.49 ppm,[2]; 24 h after treatment,12%
same,Emax at 0.49 ppm,[2]; 48 h after treatment,26%
same,Emax at 0.49 ppm,[3]; 24 h after treatment,4%
same,Emax at 0.49 ppm,[3]; 48 h after treatment,21%
same,Emax at 2.15 ppm,[4]; 24 h after treatment,44%
same,Emax at 2.15 ppm,[4]; 48 h after treatment,68%
same,Emax at 0.39 ppm,[5]; 24 h after treatment,40%
same,Emax at 0.39 ppm,[5]; 48 h after treatment,49%
same,Emax at 3.9 ppm,[6]; 24 h after treatment,3%
same,Emax at 3.9 ppm,[6]; 48 h after treatment,20%
same,Emax at 0.975 ppm,[7]; 24 h after treatment,16%
same,Emax at 0.975 ppm,[7]; 48 h after treatment,29%
